Test results from patent US20130196900A1, “ENHANCEMENT OF INNATE RESISTANCE TO INFECTION” (priority 2007, published 2013).
Several values for one entry are separate records, joined by “and”; a condition that tells them apart may be missing. Equal entries are not always repeated. Where two headings read alike, the source gives them in different places.

What was measured:
[1] = tested on: cathepsin D; format: cell-based, mouse
[2] = tested on: Phase II C. burnetii; format: cell-based; conditions: 96 hours
[3] = tested on: MonoMac-1 cells; experiment: IL-8 assay in MonoMac-1 cells (ELISA); format: cell-based, human; conditions: securinine 25 μM vs carrier/buffer control
[4] = tested on: C. burnetii (Phase II Nine Mile strain); format: cell-based; conditions: 96 hours
[5] = concentrations as high as 10 mg/kg or greater i.p.; cited from earlier work
[6] = tested on: C. burnetii; conditions: 24 hours
[7] = tested on: host macrophages; conditions: 24 hours
[8] = tested on: C. burnetii (Phase II Nine Mile strain); format: cell-based; conditions: 96 hours; remark: listed apart in the source
[9] = tested on: Phase II C. burnetii; format: in vivo
[10] = tested on: p38 map kinase; experiment: p38 MAP kinase Western blot in Monomac-1 cells; format: cell-based, human; conditions: 50 μM securinine
[11] = tested on: TLR-1 to 10; experiment: TLR activation assay (THP1-Blue-CD14/SEAP); format: cell-based; conditions: securinine 50 or 25 μM, 24 hours
[12] = tested on: peritoneal cells; experiment: Analysis of peritoneal cells after i.p. injection (FACS); format: in vivo, Balb/c mice; conditions: peritoneum, data not shown

O=C1C=C2C=C[C@@H]3C[C@@]2(O1)[C@H]1CCCCN31 [securinine]
cathepsin D expression in infected macrophages [1]: induced cathepsin D expression
percent C. burnetii killing [2]: > 80%
IL-8 secretion [3]: potent inducer of IL-8 secretion
C. burnetii killing [4]: induced killing of C. burnetii
toxicity [5]: without any obvious toxicity
direct killing of C. burnetii [6]: Neither of the compounds, at concentrations that induced killing in vitro and in vivo, induced direct killing
direct killing of host cells [7]: Neither of the compounds, at concentrations that induced killing in vitro and in vivo, induced direct killing
C. burnetii killing [8]: induced killing of C. burnetii
C. burnetii burden (viable bacterial counts) ([9]; 96 hr): significantly (P value <0.05) lower
spleen weights ([9]; 96 hr): significantly (P value <0.05) lower
reduction in C. burnetii, PCR assay for bacterial DNA ([9]; in vivo, ip): 10 fold
reduction in C. burnetii, viability assay ([9]; in vivo, ip): 10 fold
p38Map kinase activity (phospho-p38) [10]: induces p38Map kinase activity
TLR-1 to 10 signaling (SEAP release) [11]: not detected

Pam3CGDPKHPKSF [FSL-1]
neutrophil and macrophage activation: CD11b and Ly6C expression [12]: increased
C. burnetii content of infected cells [4]: less C. burnetii
direct killing of C. burnetii [6]: Neither of the compounds, at concentrations that induced killing in vitro and in vivo, induced direct killing
direct killing of host cells [7]: Neither of the compounds, at concentrations that induced killing in vitro and in vivo, induced direct killing
bacterial burden by PCR, lower than buffer alone ([9]; in vivo): > 10 fold
bacterial counts by PCR ([9]; in vivo): reduced bacterial counts
efficiency in inducing enhanced C. burnetii clearance, share of animals ([9]; in vivo): 61% and 100%
mice showing a reduction of C. burnetii ([9]; in vivo): 11 mice
mice with lower spleen weight and bacterial burden ([9]; in vivo): 5 out of 5
spleen weight ([9]; in vivo): significantly lower
splenomegaly (spleen weight) ([9]; in vivo): reduced the splenomegaly
total C. burnetii DNA from spleen and liver ([9]; in vivo): lower
viable bacterial counts in the spleen (bacLight FACS assay) ([9]; in vivo): enhanced clearance of C. burnetii
spleen C. burnetii numbers (PCR quantification of bacterial DNA) ([9]; in vivo, ip): reduced

lipopolysaccharide [LPS]
neutrophil and macrophage activation: CD11b and Ly6C expression [12]: increased
C. burnetii content of infected cells [4]: less C. burnetii
benefit on C. burnetii infection in vivo ([9]; in vivo): No benefit
spleen C. burnetii numbers (PCR quantification of bacterial DNA) ([9]; in vivo, ip): did not have an effect
